Measurements published in patent US9284291B2, “Kappa opioid receptor compounds” (MediSynergies, LLC, priority 2014, dated 2016).

Assays:
Format in all cases: binding
Delta opioid receptor = Delta opioid receptor (Homo sapiens, UniProt P41143); experiment: Opioid receptor affinity, NIMH PDSP screen, Delta subtype
Procedure: (§1) The compound of Example 7 was tested for activity vs. opioid receptor subtypes, at an initial concentration of 10 μM, through the NIMH Psychoactive Drug Screening Program (PDSP), operated by Dr. Bryan Roth and his colleagues in the Department of Pharmacology at the University of North Carolina (Chapel Hill, N.C.) through an agreement with the National Institute of Mental Health (NIMH).

Kappa opioid receptor = Kappa opioid receptor (Homo sapiens, UniProt P41145); experiment: Opioid receptor affinity, NIMH PDSP screen, Kappa subtype
Kappa opioid receptor, sequence (P41145 whole entry): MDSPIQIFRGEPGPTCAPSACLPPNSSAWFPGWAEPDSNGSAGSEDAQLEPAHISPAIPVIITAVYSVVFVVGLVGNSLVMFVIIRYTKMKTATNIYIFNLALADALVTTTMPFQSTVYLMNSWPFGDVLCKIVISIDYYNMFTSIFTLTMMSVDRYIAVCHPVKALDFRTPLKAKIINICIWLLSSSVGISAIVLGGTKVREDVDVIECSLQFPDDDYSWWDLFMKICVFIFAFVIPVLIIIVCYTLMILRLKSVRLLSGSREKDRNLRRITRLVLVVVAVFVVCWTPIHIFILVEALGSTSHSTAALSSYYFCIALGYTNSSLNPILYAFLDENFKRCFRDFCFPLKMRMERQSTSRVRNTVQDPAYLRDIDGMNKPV
Procedure: as §1

Mu opioid receptor = Mu opioid receptor (Homo sapiens, UniProt P35372); experiment: Opioid receptor affinity, NIMH PDSP screen, Mu subtype
Mu opioid receptor, sequence (P35372 whole entry, species assumed): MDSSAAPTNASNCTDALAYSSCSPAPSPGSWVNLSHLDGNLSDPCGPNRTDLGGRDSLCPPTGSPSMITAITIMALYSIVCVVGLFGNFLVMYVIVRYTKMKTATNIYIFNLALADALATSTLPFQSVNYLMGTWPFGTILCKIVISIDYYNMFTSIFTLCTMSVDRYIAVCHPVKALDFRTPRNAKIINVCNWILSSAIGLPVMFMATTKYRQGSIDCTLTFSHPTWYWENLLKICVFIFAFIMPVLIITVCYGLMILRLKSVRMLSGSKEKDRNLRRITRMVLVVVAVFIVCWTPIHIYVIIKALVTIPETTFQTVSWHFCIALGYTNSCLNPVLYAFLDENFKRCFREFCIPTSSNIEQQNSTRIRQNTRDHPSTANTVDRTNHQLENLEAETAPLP
Procedure: as §1

Delta opioid receptor, sequence (P41143 whole entry): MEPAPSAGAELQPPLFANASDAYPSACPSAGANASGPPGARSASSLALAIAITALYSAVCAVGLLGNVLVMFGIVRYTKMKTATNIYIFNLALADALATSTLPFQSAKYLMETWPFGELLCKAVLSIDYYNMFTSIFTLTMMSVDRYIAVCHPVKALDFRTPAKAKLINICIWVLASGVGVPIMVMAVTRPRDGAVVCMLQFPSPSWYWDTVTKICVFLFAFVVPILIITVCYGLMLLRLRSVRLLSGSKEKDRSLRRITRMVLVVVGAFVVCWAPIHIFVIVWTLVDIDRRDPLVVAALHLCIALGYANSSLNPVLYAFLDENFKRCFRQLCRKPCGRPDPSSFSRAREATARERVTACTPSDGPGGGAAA

- inhibition at 10 µM (Delta opioid receptor): 23.5%
- Ki (Kappa opioid receptor): 47 nM
- inhibition at 10 µM (Kappa opioid receptor; 10 μM): 100%
- inhibition at 10 µM (Mu opioid receptor): 39.1%
Structure (SMILES): CN(C)CCCC1(c2ccc(F)cc2)OCc2cc(-c3ncc[nH]3)ccc21 (stereo not shown) [Example 7]
